In EP2140864A2 (H. Lundbeck A/S, priority 2001, dated 2002):
Read-outs that look alike come from different tables or passages of the source.

Assays:
human GAL1 receptor = target: T1, human GAL1 receptor (Homo sapiens, UniProt P47211); experiment: Radioligand binding at cloned human GAL1 receptor
T1 construct: expressed in transfected cells
T1 sequence (P47211 1-349): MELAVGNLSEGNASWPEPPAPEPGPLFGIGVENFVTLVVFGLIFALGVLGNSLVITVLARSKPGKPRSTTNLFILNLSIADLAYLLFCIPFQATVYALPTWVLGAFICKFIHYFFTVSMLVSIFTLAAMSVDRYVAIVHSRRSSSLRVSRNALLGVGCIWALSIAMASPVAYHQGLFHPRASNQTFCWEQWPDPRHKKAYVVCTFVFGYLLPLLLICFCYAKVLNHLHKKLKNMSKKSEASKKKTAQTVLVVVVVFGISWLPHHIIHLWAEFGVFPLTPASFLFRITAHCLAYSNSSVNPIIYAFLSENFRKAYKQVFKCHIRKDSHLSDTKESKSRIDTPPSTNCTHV
Procedure: The binding properties of the pyrimidines of the present invention were evaluated at the cloned human galanin receptors, GAL1, GAL2, and GAL3, using protocols described herein. […]
(§1) LM(tk-) cells were stably transfected with the human GAL1 or GAL3 receptor. CHO cells were stably transfected with the human GAL2 receptor.
(§2) cDNAs for the human and rat GAL1, and human and rat GAL3 receptors were transfected with a G-418 resistant gene into the mouse fibroblast LM(tk-) cell line by a calcium phosphate transfection method (Cullen, 1987). Stably transfected cells were selected with G-418. Human and rat GAL2 receptors were similarly transfected into CHO cells.
(§3) Membranes were harvested from stably transfected LM(tk-) cells. Adherent cells were washed twice in ice-cold phosphate buffered saline (138 mM NaCl, 8.1 mM Na2HPO4, 2.5 mM KCl, 1.2 mM KH2PO4, 0.9 mM CaCl2, 0.5 mM MgCl2, pH 7.4) and lysed by sonication in ice-cold sonication buffer (20 mM Tris-HCl, 5 mM EDTA, pH 7.7). Large particles and debris were cleared by low speed centrifugation (200 x g, 5 min, 4°C). Membranes were collected from the supernatant fraction by centrifugation (32,000 x g, 18 min, 4°C), washed with ice-cold hypotonic buffer, and collected again by centrifugation (32,000 x g, 18 min, 4°C). The final membrane pellet was resuspended by sonication into a small volume of ice-cold binding buffer (-1 ml for every 5 plates: 10 mM NaCl, 20 mM HEPES, 0.22 mM KH2PO4, 1.26 mM CaCl2, 0.81 mM MgSO4, pH 7.4). Protein concentration was measured by the Bradford method (Bradford, 1976) using Bio-Rad Reagent, with bovine serum albumin as a standard. Membranes were held on ice for up to one hour and used fresh, or flash frozen and stored in liquid nitrogen. Membranes were prepared similarly from CHO cells.
(§4) Galanin Recentors: Binding assays were performed according to the following published methods: human GAL3 (PCT International Publication No. WO 98/15570), human GAL1 (PCT International Publication No. WO 95/2260), human GAL2 (PCT International Publication No. WO 97/26853).
(§5) Binding data were analyzed using nonlinear regression and statistical techniques available in the GraphPAD Prism package (San Diego, CA). Enzymatic assay data were derived from a standard curve of reference compound data.

human GAL2 receptor = target: T2, human GAL2 receptor (Homo sapiens, UniProt O43603); experiment: Radioligand binding at cloned human GAL2 receptor
T2 construct: expressed in transfected cells
T2 sequence (O43603 1-387): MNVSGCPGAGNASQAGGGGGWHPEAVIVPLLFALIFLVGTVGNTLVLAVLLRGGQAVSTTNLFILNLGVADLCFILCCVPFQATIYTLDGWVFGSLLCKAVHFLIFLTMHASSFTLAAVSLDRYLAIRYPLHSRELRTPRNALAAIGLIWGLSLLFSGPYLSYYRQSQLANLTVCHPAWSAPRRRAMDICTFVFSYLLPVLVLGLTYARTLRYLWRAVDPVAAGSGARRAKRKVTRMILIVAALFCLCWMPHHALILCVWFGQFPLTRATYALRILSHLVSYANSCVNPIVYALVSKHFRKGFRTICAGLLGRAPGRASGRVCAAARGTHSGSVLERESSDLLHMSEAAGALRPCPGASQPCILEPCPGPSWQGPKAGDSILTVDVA
Procedure: The binding properties of the pyrimidines of the present invention were evaluated at the cloned human galanin receptors, GAL1, GAL2, and GAL3, using protocols described herein.
The binding properties of the indolones of the present invention were evaluated at the cloned human galanin receptors, GAL1, GAL2, and GAL3, using protocols described herein.
as §1, §2, §3, §4, §5

human GAL3 receptor = target: T3, human GAL3 receptor (Homo sapiens, UniProt O60755); experiment: Radioligand binding at cloned human GAL3 receptor
T3 construct: expressed in transfected cells
T3 sequence (O60755 1-368): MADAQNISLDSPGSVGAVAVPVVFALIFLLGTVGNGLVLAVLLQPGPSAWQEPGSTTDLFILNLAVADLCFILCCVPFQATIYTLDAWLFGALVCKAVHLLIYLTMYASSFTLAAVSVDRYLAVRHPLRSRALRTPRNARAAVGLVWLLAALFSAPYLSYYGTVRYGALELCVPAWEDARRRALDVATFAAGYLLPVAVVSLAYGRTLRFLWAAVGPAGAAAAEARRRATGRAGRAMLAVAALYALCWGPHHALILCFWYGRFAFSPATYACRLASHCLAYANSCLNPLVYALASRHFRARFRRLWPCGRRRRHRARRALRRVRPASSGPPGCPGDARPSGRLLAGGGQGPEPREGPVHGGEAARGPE
Method in brief: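 Membranes from LM(tk-) cells stably expressing human GAL3, prepared in binding buffer (HEPES-based, pH 7.4), used for radioligand binding. Solvent at final assay concentration: 3% DMSO for indolones, 1% ethanol/0.09% pluronic F-127 for pyrimidines. Binding data analysed by nonlinear regression.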

[1] = pyrimidines, read-out: Ki GalR1
[2] = pyrimidines, read-out: Ki GalR2
[3] = pyrimidines, cloned human receptor; read-out: Ki GalR3
[4] = indolones, cloned human receptor; read-out: Ki GalR3

| Structure (SMILES) | Ki (human GAL1 receptor; [1]) [nM] | Ki (human GAL2 receptor; [2]) [nM] | Ki (human GAL3 receptor; [3]) [nM] | further results |
| --- | --- | --- | --- | --- |
| Cc1ccc(Nc2cc(N3CCCCC3)nc(N(C)C3CCCCC3)n2)cc1 [Example 1] | 668 | 188 | 35 |  |
| COCCN(c1nc(Nc2ccc(C)cc2)cc(N2CCCCC2)n1)C1CCCCC1 [Example 2] | 2820 | 562 | 26 |  |
| Cc1ccc(Nc2cc(N3CCCCC3)nc(Nc3ccc(Cl)cc3)n2)cc1 [Example 5] | > 5000 | > 5000 | 345 |  |
| Cc1ccc(Nc2cc(N3CCCCC3)nc(N(C)c3ccc(C)cc3)n2)cc1 [Example 7] | 1110 | 775 | 177 |  |
| CN(CCc1c[nH]c2ccccc12)c1nc(Nc2ccc3ccccc3c2)cc(N2CCCCC2)n1 [Example 13] | 2070 | 1410 | 81 |  |
| CCN(CCc1c[nH]c2ccccc12)c1nc(Nc2ccc(C)cc2)cc(N2CCCCC2)n1 [Example 18] | 3590 | 543 | 40 |  |
| Cc1ccc(Nc2cc(N3CCCCC3)nc(NC(C)Cc3c[nH]c4ccccc34)n2)cc1 (stereo not drawn) [Example 20] | > 5000 | > 5000 | 164 |  |
| Cc1ccc(Nc2cc(N3CCCCC3)nc(N(C)C(C)Cc3c[nH]c4ccccc34)n2)cc1 (stereo not drawn) [Example 21] | 4790 | 1100 | 49 |  |
| Cc1ccc(Nc2cc(N3CCCCC3)nc(N3CCN(c4ccccc4)CC3)n2)cc1 [Example 25] | > 5000 | 1500 | 548 |  |
| Cc1ccc(Nc2cc(N3CCCCC3)nc(N3CCN(c4c(C)cccc4C)CC3)n2)cc1 [Example 27] | 2690 | 272 | 63 |  |
| COc1ccc(N2CCN(c3nc(Nc4ccc(C)cc4)cc(N4CCCCC4)n3)CC2)c(OC)c1 [Example 28] |  |  |  | Ki (human GAL1 receptor; read-out: Ki GalR1, pyrimidines): > 5000 nM; Ki (human GAL2 receptor; read-out: Ki GalR2, pyrimidines): > 5000 nM; Ki (human GAL3 receptor; read-out: Ki GalR3; pyrimidines, cloned human receptor): 270 nM |
| Cc1ccc(Nc2cc(N3CCCCC3)nc(N3CCN(c4cccc(C(F)(F)F)c4)CC3)n2)cc1 [Example 29] | 716 | 359 | 46 |  |
| FC(F)(F)c1cccnc1N1CCN(c2nc(NC3CC4CCC3C4)cc(N3CCCCC3)n2)CC1 (stereo not drawn) [Example 36] | 442 | 90 | 93 |  |
| Cc1ccc(Nc2cc(N3CCCCC3)nc(N3CCCC3)n2)cc1 [Example 38] | 2900 | 516 | 320 |  |
| Cc1ccc(Nc2cc(N3CCCCC3)nc(N3CCc4ccccc4C3)n2)cc1 [Example 41] | 2130 | 840 | 151 |  |
| Cc1ccc(Nc2cc(N3CCCCC3)nc(N3CCOCC3c3ccccc3)n2)cc1 (stereo not drawn) [Example 46] | > 5000 | > 5000 | 577 |  |
| Cc1ccc(Nc2cc(N3CCCCC3)nc(N3CCOC(c4ccccc4)C3)n2)cc1 (stereo not drawn) [Example 47] | > 5000 | 3010 | 115 |  |
| Cc1ccc(Nc2cc(N3CCCCC3)nc(N3CCO[C@@H](c4ccccc4)[C@H]3C)n2)cc1 [Example 48] | > 5000 | 4230 | 120 |  |
| CN(C)c1cc(Nc2ccc(Cl)cc2)nc(Nc2ccccc2)n1 [Example 58] | > 5000 | > 5000 | 783 |  |

| Structure (SMILES) | Ki (human GAL1 receptor; [1]) [nM] | Ki (human GAL2 receptor; [2]) [nM] | Ki (human GAL3 receptor; [3]) [nM] | further results |
| --- | --- | --- | --- | --- |
| Cc1cc(Nc2cc(N(C)C)nc(Nc3ccccc3)n2)ccc1Cl [Example 61] | > 5000 | > 5000 | 753 |  |
| Cc1ccc(Nc2cc(N(C)C)nc(Nc3ccccc3)n2)cc1Cl [Example 62] | > 5000 | > 5000 | 736 |  |
| CC1CCC(Nc2cc(N(C)C)nc(Nc3ccccc3)n2)CC1 (stereo not drawn) [Example 67] | > 5000 | > 5000 | 752 |  |
| CN(C)c1cc(NC2CCC(C(C)(C)C)CC2)nc(Nc2ccccc2)n1 (stereo not drawn) [Example 68] | > 5000 | 2150 | 164 |  |
| CN(C)c1cc(NC2CC3CCC2C3)nc(Nc2ccccc2)n1 (stereo not drawn) [Example 69] | > 5000 | > 5000 | 417 |  |
| CN(C)c1cc(NC2CC3CCC2(C)C3(C)C)nc(Nc2ccccc2)n1 (stereo not drawn) [Example 70] | > 5000 | 944 | 476 |  |
| COCCN(c1nc(Nc2ccc(C)cc2)cc(N(C)C)n1)C1CCCCC1 [Example 74] | 2290 | 468 | 47 |  |
| Cc1ccc(Nc2cc(N(C)C)nc(N3CCc4ccccc43)n2)cc1 [Example 75] | 1460 | 2460 | 144 |  |
| Cc1ccc(Nc2cc(N(C)C)nc(NCCc3c[nH]c4ccccc34)n2)cc1 [Example 76] | 3800 | 1660 | 392 |  |
| CN(C)c1cc(Nc2ccc(Cl)c(Cl)c2)nc(N(C)CCc2c[nH]c3ccccc23)n1 [Example 78] | 4940 | 1860 | 41 |  |
| Cc1ccc(Nc2cc(N(C)C)nc(N3CCOCC3c3ccccc3)n2)cc1 (stereo not drawn) [Example 82] | > 5000 | > 5000 | 232 |  |
| Cc1ccc(Nc2cc(N(C)C)nc(N3CCOC(c4ccccc4)C3)n2)cc1 (stereo not drawn) [Example 83] | > 5000 | > 5000 | 160 |  |
| Cc1ccc(Nc2cc(N(C)C)nc(N3CCN(c4ncccc4C(F)(F)F)CC3)n2)cc1 [Example 88] | 2190 | 355 | 39 |  |
| Cc1ccc(Nc2cc(N3CCN(c4ncccc4C(F)(F)F)CC3)nc(N3CCCCC3)n2)cc1 [Example 89] | 1120 | 1270 | 105 |  |
| COCC1CCCCN1c1cc(Nc2ccc(C)cc2)nc(N2CCN(c3ncccc3C(F)(F)F)CC2)n1 (stereo not drawn) [Example 90] | > 5000 | 2460 | 105 |  |
| COc1ccccc1N=C1C(=O)N(c2ccccc2)c2ccccc21 [Example 91, 3-[(2-METHOXYPHENYL)IMINO]-1-PHENYL-1,3-DIHYDRO-2H-INDOL-2-ONE] |  |  |  | Ki (human GAL1 receptor; indolones, read-out: Ki GalR1): > 10000 nM; Ki (human GAL2 receptor; indolones, read-out: Ki GalR2): > 10000 nM; Ki (human GAL3 receptor; [4]): 527 nM |
| Cc1cccc(N=C2C(=O)N(c3ccccc3)c3ccccc32)c1 [Example 93] |  |  |  | Ki (human GAL1 receptor; indolones, read-out: Ki GalR1): > 10000 nM; Ki (human GAL2 receptor; indolones, read-out: Ki GalR2): > 10000 nM; Ki (human GAL3 receptor; [4]): 171 nM |
| Cc1ccc(N=C2C(=O)N(c3ccccc3)c3ccccc32)cc1 [Example 96] |  |  |  | Ki (human GAL1 receptor; indolones, read-out: Ki GalR1): > 10000 nM; Ki (human GAL2 receptor; indolones, read-out: Ki GalR2): > 10000 nM; Ki (human GAL3 receptor; [4]): 111 nM |
